Counter-ions that a name gives are not always drawn.

TDP-43, sequence (Q13148 whole entry): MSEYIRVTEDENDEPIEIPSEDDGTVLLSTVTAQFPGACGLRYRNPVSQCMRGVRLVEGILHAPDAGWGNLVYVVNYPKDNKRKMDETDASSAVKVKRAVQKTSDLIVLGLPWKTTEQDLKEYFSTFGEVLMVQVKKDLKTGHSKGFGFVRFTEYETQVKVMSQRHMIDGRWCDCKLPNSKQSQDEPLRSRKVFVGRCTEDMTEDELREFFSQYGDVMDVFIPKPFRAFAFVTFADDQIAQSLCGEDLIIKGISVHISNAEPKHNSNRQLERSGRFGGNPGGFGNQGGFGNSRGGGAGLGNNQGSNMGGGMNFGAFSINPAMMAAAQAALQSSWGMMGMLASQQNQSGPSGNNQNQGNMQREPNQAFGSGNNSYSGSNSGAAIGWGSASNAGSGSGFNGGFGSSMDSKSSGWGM

The assay deals with TDP-43 (Homo sapiens, UniProt Q13148). As to the kind of experiment: TDP-43-DNA alpha-screen assay (bt-TAR-32 displacement). The class given is binding. The conditions noted are these: bt-TAR-32 0.125 nM, 15 ng/ml TDP-43. The procedure:
Alpha-screen assay: Displacement of bt-TG6 binding was measured using AlphaScreen technology as previously described (Cassel, J. A. et al., Journal of Biomolecular Screening, 2010, 15, 1099-1106; Cassel, J. A.; Reitz, A. B. et al. The effects of small molecule inhibitors of nucleic acid binding to TDP-43 on TDP-43 metabolism and function. Biochimie, 2012, 94, 1974-1981).
Test compounds were diluted in assay buffer (25 mM Tris [pH 7.4], 0.1% bovine serum albumin [BSA], 0.1% Triton X-100) at 4× the desired final concentration. Dilutions of test compound (50 to 0.02 μM in half-log dilutions with a no compound control well) were pre-incubated with TDP-43 (5 μl of 60 ng/mL) pre-bound to AlphaScreen® anti-GST acceptor beads (5 μl of 40 μg/mL) in 15 μl volume for 30 minutes at 23° C. with shaking. Assays were initiated by the addition of 5 μl bt-TAR-32 (5′-CTGCTTTTTGCCTGTACTGGGTCTCTGTGGTT-3′) 0.5 nM pre-bound to AlphaScreen® strepavidin donor beads (40 μg/mL). After incubation in the dark at 23° C. for 90 minutes with shaking, the AlphaScreen® signal was measured on a Synergy 2 plate reader (BioTek, Winooski, Vt.). IC50 values were determined from nonlinear regression fits of the data to a Sigmoidal dose response variable slope model in GraphPad Prism. Final assay conditions are 25 mM Tris [pH 7.4], 0.1% bovine serum albumin [BSA], 0.100 Triton X-100, 15 ng/ml TDP-43, 0.125 nM bTAR32, 10 ug/ml […].
On to `COc1ccc(-c2cc(NCCCN3CC4CN(C(=O)OC(C)(C)C)CC4C3)c3ccccc3n2)cc1` (stereo not shown) [Example 27, tert-butyl 5-(3-((2-(4-methoxyphenyl)quinolin-4-yl)amino)propyl)hexahydro-pyrrolo[3,4-c]pyrrole-2(1H)-carboxylate], for which the 50% inhibitory concentration (IC50) was found to be 2080 nM.

For `COc1ccc(-c2cc(NCCCN(C)Cc3ccc(N(C)C)nc3)c3ccccc3n2)cc1` [Example 28, N^1-((6-(dimethylamino)pyridin-3-yl)methyl)-N^3-(2-(4-methoxyphenyl)quinolin-4-yl)-N^1-methylpropane-1,3-diamine], the concentration for half-maximal inhibition (IC50) was determined as 1210 nM. Turning to `CN(CCCN)CCCNc1cc(-c2ccc(N3CCNCC3)cc2)nc2ccccc12` [Example 29, N^1-(3-aminopropyl)-N^1-methyl-N^3-(2-(4-(piperazin-1-yl)phenyl)quinolin-4-yl)propane-1,3-diamine], the IC50 came to 80 nM. To `COc1ccc(-c2cc(NCCCN(C)CC3CCN(C)CC3)c3ccccc3n2)cc1` [Example 30, N^1-(2-(4-methoxyphenyl)quinolin-4-yl)-N^3-methyl-N^3-((1-methylpiperidin-4-yl)methyl)propane-1,3-diamine] belongs 350 nM; to `COc1ccc(-c2cc(NCCCN(C)CCC3CCCCN3)c3ccccc3n2)cc1` (stereo not shown) [Example 31, N^1-(2-(4-methoxyphenyl)quinolin-4-yl)-N^3-methyl-N^3-(2-(piperidin-2-yl)ethyl)propane-1,3-diamine], 350 nM; to `COc1ccc(-c2cc(NCCCNC3CCC4CNCC43)c3ccccc3n2)cc1` (stereo not shown) [Example 33, N^1-(2-(4-Methoxyphenyl)quinolin-4-yl)-N^3-(octahydrocyclopenta[c]pyrrol-4-yl)propane-1,3-diamine dihydrochloride], 180 nM. To `COc1ccc(-c2cc(NCCCN3CC4CCC(N)C4C3)c3ccccc3n2)cc1` (stereo not shown) [Example 34, N-(3-(4-Aminohexahydrocyclopenta[c]pyrrol-2(1H)-yl)propyl)-2-(4-methoxyphenyl)quinolin-4-amine trihydrochloride] belongs 210 nM; to `COc1ccc(-c2cc(NCCCN3CC4CCN(C(=O)OC(C)(C)C)CC4C3)c3ccccc3n2)cc1` (stereo not shown) [Example 35, tert-Butyl 2-(3-((2-(4-methoxyphenyl)quinolin-4-yl)amino)propyl) hexahydro-1H-pyrrolo[3,4-c]pyridine-5(6H)-carboxylate], 2670 nM; to `COc1ccc(-c2cc(NCCCN3CC4CCNCC4C3)c3ccccc3n2)cc1` (stereo not shown) [Example 36, N-(3-(Hexahydro-1H-pyrrolo[3,4-c]pyridin-2(3H)-yl)propyl)-2-(4-methoxyphenyl)quinolin-4-amine dihydrochloride], 150 nM. The same measure for `COc1ccc(-c2cc(NCCCN(C)CC3CCN(CC4CC4)CC3)c3ccccc3n2)cc1` [Example 38, N^1-((1-(Cyclopropylmethyl)piperidin-4-yl)methyl)-N^3-(2-(4-methoxyphenyl)quinolin-4-yl)-N^1-methylpropane-1,3-diamine]: 220 nM; for `COc1ccc(-c2cc(NCCC3CCCCN3CCCN)c3ccccc3n2)cc1` (stereo not shown) [Example 39, N-(2-(1-(3-Aminopropyl)piperidin-2-yl)ethyl)-2-(4-methoxyphenyl) quinolin-4-amine dihydrochloride]: 130 nM. For the compound `COc1ccc(-c2cc(NCCCNC3CCN(Cc4ccc(F)cc4)CC3)c3ccccc3n2)cc1` [Example 40, N^1-(1-(4-Fluorobenzyl)piperidin-4-yl)-N^3-(2-(4-methoxyphenyl)quinolin-4-yl)propane-1,3-diamine], the IC50 was 300 nM. The same measure for `COc1ccc(-c2cc(NCCCN3CCC4(C3)CN(C(=O)OC(C)(C)C)C4)c3ccccc3n2)cc1` [Example 41, tert-Butyl 6-(3-((2-(4-methoxyphenyl)quinolin-4-yl)amino)propyl)-2,6-diaza spiro[3.4]octane-2-carboxylate]: 1470 nM. In the case of `COc1ccc(-c2cc(NCCCN3CCC4(CNC4)C3)c3ccccc3n2)cc1` [Example 42, N-(3-(2,6-Diazaspiro[3.4]octan-6-yl)propyl)-2-(4-methoxyphenyl)quinolin-4-amine], the IC50 was 230 nM.

Turning to `COc1ccc(-c2cc(NCCCN3CCCN(C)CC3)c3ccccc3n2)cc1` [Example 43, 2-(4-Methoxyphenyl)-N-(3-(4-methyl-1,4-diazepan-1-yl)propyl)quinolin-4-amine], the IC50 came out at 1190 nM. To `COc1ccc(-c2cc(NCCCNCCC3CCCCN3C(=O)OC(C)(C)C)c3ccccc3n2)cc1` (stereo not shown) [Example 44, tert-Butyl 2-(2-((3-((2-(4-methoxyphenyl)quinolin-4-yl)amino)propyl)amino)ethyl)piperidine-1-carboxylate] belongs 2070 nM; to `COc1ccc(-c2cc(NCCCNCCC3CCCCN3)c3ccccc3n2)cc1` (stereo not shown) [Example 45, N^1-(2-(4-methoxyphenyl)quinolin-4-yl)-N^3-(2-(piperidin-2-yl)ethyl)propane-1,3-diamine], 710 nM. To `COc1ccc(-c2cc(NCCCN3CCN(CCCN)CC3)c3ccccc3n2)cc1` [Example 46, N-(3-(4-(3-Aminopropyl)piperazin-1-yl)propyl)-2-(4-methoxyphenyl)quinolin-4-amine hydrochloride] belongs 360 nM; to `COc1ccc(-c2cc(NCCCN(C)CC3CCN(C(=O)OC(C)(C)C)CC3)c3ccccc3n2)cc1` [Example 47, tert-Butyl 4-{[(3-{[2-(4-methoxyphenyl)quinolin-4-yl]amino}propyl)(methyl)amino]methyl}piperidine-1-carboxylate], 4050 nM; to `COc1ccc(-c2cc(NCCCN(C)CC3CCNCC3)c3ccccc3n2)cc1` [Example 48, N-(3-(N-Methyl-N-((piperidin-4-yl)methyl)amino)propyl)-2-(4-methoxyphenyl)quinolin-4-amine], 100 nM. For `COc1ccc(-c2cc(NCCCNS(=O)(=O)c3ccc(-c4nn[nH]n4)cc3)c3ccccc3n2)cc1` [Example 49, N-(3-((2-(4-Methoxyphenyl)quinolin-4-yl)amino)propyl)-4-(2H-tetrazol-5-yl)benzene sulfonamide], the concentration for half-maximal inhibition (IC50) is 7200 nM. Regarding `COc1ccc(-c2cc(NCCCNc3ccc(-c4nn[nH]n4)cc3)c3ccccc3n2)cc1` [Example 50, N^1-(4-(2H-Tetrazol-5-yl)phenyl)-N^3-(2-(4-methoxyphenyl)quinolin-4-yl) propane-1,3-diamine], the IC50 amounted to 15300 nM. To `COc1ccc(-c2cc(NCCCN3CCC(CO)CC3)c3ccccc3n2)cc1` [Example 51, (1-(3-((2-(4-Methoxyphenyl)quinolin-4-yl)amino)propyl)piperidin-4-yl) methanol] belongs 1490 nM; to `CCN(CC)CC(O)CNCCCNc1cc(-c2ccc(OC)cc2)nc2ccccc12` (stereo not shown) [Example 52, 1-(Diethylamino)-3-((3-((2-(4-methoxyphenyl)quinolin-4-yl)amino)propyl)amino)propan-2-ol dihydrochloride], 170 nM.

For the compound `COc1ccc(-c2cc(NCCCNCc3ccnn3C)c3ccccc3n2)cc1` [Example 53, N^1-(2-(4-Methoxyphenyl)quinolin-4-yl)-N^3-((1-methyl-1H-pyrazol-5-yl)methyl) propane-1,3-diamine dihydrochloride], the IC50 was determined as 3270 nM.

`COc1ccc(-c2cc(NCCCNCCc3ccccn3)c3ccccc3n2)cc1` [Example 54, N^1-(2-(4-methoxyphenyl)quinolin-4-yl)-N^3-(2-(pyridin-2-yl)ethyl)propane-1,3-diamine hydrochloride]: the IC50 was 1920 nM. The same measure for `COc1ccc(-c2cc(NCCCNc3ccc(N4CCCCC4)cc3)c3ccccc3n2)cc1` [Example 55, N^1-(2-(4-Methoxyphenyl)quinolin-4-yl)-N^3-(4-(piperidin-1-yl)phenyl) propane-1,3-diamine dihydrochloride]: 970 nM. The same measure for `COc1ccc(-c2cc(NCC3CCCN(CCCN)C3)c3ccccc3n2)cc1` (stereo not shown) [Example 56, N-((1-(3-Aminopropyl)piperidin-3-yl)methyl)-2-(4-methoxyphenyl)quinolin-4-amine]: 300 nM; for `COc1ccc(-c2cc(NCCCNCCc3c[nH]c4cc(OC)ccc34)c3ccccc3n2)cc1` [Example 57, N-(3-(2-(6-Methoxy-1H-indol-3-yl)ethylamino)propyl)-2-(4-methoxyphenyl) quinolin-4-amine]: 260 nM; for `COc1ccc(-c2cc(NCCCN(CC3CCN(C(=O)OC(C)(C)C)CC3)CC3CCN(C(=O)OC(C)(C)C)CC3)c3ccccc3n2)cc1` [Example 58, tert-Butyl 4-{[({1-[(tert-butoxy)carbonyl]piperidin-4-yl}methyl)(3-{[2-(4-methoxyphenyl)-quinolin-4-yl]amino}propyl)amino]methyl}piperidine-1-carboxylate]: 26700 nM. To `COc1ccc(-c2cc(NCCCN(CC3CCNCC3)CC3CCNCC3)c3ccccc3n2)cc1` [Example 59, N-(3-(Bis((piperidin-4-yl)methyl)amino)propyl)-2-(4-methoxyphenyl) quinolin-4-amine] belongs 100 nM.

The values are drawn from patent publication US20220388962A1 (Biohaven Therapeutics Ltd., priority 2019, published 2022).
